Test results: paper PMC4956396 (Molecular Pain, 2016)

Tests used:
Cav3.1 = Cav3.1 (Homo sapiens, UniProt O43497); assay: whole-cell patch clamp, transiently transfected tsA-201 cells, % inhibition at […]; format: cell-based; conditions: tsA201, read-out: % inhibition at 10 μM
Cav3.3 = Cav3.3 (Homo sapiens, UniProt Q9P0X4); assay: as above; format: cell-based; conditions: tsA201, read-out: % inhibition at 10 μM
Chain of Cav3.3 (Q9P0X4 whole entry): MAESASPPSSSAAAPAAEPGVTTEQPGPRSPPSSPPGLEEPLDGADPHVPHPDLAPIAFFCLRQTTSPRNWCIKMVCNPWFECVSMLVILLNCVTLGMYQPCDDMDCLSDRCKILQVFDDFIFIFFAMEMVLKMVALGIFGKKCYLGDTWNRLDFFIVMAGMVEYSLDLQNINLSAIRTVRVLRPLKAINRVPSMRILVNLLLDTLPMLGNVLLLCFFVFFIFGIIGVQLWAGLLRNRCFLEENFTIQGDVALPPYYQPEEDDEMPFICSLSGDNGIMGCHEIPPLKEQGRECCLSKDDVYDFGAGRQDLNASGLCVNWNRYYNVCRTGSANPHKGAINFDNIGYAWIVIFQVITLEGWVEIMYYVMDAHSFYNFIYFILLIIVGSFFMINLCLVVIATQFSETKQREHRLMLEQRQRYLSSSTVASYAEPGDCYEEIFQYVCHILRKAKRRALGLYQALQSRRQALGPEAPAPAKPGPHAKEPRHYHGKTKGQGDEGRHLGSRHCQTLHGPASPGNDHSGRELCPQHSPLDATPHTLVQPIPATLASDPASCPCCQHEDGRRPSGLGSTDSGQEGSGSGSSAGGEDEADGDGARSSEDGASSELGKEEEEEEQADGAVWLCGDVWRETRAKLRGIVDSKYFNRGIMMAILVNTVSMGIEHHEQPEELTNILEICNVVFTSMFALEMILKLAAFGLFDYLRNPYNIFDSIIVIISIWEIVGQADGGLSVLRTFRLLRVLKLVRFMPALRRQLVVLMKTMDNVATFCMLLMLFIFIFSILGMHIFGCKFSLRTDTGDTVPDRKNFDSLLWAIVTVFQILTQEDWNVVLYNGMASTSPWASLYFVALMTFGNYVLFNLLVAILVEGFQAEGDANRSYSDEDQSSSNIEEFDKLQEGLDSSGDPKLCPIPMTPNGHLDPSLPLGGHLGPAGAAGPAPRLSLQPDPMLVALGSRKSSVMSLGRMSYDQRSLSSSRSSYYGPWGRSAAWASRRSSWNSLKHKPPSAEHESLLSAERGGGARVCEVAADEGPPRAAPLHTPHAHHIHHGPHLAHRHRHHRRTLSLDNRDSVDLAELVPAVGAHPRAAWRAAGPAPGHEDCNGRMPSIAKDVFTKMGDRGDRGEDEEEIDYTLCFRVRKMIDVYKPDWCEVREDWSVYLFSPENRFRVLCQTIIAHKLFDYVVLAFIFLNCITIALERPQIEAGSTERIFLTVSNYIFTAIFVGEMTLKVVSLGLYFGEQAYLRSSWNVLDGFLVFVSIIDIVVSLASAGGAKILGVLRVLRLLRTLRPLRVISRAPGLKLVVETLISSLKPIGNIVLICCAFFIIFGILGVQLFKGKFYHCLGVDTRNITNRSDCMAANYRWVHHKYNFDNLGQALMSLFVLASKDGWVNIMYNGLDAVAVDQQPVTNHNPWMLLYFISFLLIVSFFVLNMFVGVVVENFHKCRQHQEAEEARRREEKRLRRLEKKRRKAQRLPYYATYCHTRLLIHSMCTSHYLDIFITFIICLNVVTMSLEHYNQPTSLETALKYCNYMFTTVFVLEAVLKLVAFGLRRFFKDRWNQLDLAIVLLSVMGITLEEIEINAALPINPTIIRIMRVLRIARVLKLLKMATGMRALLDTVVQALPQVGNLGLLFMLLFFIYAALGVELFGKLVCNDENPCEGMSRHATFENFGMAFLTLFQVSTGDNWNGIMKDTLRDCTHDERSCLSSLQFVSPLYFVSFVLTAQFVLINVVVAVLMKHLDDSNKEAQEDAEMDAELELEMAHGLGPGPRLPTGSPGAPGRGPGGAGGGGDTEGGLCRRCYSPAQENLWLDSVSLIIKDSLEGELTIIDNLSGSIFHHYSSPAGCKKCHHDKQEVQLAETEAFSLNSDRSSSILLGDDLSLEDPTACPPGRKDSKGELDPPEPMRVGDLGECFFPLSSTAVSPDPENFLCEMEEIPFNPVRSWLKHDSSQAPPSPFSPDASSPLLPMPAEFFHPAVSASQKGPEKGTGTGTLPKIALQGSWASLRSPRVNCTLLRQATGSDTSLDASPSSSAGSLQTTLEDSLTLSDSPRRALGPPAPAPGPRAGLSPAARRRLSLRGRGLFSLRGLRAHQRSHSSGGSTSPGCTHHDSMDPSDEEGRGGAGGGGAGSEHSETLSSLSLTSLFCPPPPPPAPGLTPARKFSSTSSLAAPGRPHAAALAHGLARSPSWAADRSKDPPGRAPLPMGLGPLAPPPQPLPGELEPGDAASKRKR

Chain of Cav3.1 (O43497 whole entry): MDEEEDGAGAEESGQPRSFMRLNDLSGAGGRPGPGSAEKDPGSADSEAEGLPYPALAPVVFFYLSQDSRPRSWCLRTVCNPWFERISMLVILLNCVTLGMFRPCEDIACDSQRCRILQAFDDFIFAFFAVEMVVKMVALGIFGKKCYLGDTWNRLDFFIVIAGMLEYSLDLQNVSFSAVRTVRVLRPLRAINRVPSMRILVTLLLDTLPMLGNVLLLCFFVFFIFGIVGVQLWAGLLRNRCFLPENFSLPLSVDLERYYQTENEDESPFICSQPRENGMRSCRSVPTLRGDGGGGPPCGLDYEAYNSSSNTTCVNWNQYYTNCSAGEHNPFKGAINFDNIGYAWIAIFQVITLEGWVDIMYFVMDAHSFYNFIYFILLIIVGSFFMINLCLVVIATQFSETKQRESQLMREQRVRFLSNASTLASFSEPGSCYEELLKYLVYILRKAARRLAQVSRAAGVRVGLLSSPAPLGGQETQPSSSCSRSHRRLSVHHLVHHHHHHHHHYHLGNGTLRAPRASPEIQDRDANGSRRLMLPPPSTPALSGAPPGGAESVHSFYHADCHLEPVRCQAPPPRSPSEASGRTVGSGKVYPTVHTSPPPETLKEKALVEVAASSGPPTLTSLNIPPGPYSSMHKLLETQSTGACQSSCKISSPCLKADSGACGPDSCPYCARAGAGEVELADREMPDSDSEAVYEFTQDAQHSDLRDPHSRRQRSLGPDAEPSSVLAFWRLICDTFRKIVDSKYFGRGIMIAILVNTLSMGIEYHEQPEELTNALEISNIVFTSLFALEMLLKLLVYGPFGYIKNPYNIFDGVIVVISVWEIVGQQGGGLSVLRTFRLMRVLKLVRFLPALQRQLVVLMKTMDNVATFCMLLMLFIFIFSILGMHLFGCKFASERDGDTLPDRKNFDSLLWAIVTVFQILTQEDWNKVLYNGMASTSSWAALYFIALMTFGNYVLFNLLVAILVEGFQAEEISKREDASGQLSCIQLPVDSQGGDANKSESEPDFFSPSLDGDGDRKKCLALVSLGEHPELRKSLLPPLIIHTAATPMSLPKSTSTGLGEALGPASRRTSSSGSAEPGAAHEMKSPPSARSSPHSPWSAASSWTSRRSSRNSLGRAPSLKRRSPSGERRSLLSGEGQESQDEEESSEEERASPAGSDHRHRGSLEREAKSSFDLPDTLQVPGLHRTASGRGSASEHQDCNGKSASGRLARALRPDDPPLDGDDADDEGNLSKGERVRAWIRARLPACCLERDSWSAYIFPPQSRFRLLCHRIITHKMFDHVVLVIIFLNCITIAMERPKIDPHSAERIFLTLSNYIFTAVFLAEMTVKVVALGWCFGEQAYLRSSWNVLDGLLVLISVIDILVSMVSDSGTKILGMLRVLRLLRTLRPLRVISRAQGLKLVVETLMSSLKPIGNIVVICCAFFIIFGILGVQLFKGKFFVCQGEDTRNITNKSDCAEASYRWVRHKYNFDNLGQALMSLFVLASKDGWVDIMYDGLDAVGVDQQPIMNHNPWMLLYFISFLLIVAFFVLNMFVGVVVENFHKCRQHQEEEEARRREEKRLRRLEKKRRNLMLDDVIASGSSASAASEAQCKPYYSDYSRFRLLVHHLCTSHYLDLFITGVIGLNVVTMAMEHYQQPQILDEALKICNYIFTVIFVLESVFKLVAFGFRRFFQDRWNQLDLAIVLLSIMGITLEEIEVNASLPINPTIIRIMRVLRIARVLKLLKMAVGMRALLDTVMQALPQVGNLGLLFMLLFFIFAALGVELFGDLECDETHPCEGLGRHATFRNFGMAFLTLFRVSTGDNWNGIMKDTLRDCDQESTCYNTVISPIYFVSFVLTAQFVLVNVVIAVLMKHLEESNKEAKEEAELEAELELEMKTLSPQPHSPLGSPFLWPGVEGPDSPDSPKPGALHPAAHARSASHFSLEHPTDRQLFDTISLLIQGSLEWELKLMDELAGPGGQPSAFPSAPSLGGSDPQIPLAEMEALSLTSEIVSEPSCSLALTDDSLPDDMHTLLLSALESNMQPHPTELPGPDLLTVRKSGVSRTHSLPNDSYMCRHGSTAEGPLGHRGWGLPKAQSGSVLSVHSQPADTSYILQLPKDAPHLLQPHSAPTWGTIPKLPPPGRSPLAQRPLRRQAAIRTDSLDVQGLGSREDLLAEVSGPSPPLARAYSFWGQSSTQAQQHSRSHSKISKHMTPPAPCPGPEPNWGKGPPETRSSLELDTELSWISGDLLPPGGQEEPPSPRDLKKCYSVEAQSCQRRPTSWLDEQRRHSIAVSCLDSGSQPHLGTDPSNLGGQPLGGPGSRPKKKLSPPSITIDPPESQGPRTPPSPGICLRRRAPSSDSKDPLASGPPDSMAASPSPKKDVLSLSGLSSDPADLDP

inhibition at 10 µM (Cav3.1): 93.3 ± 2.78%
inhibition at 10 µM (Cav3.3): 88.4 ± 4.08%
SMILES: COc1ccccc1-c1no[n+]([O-])c1CN1CCN(C(c2ccc(F)cc2)c2ccc(F)cc2)CC1 [10e, 3-((4-(bis(4-fluorophenyl)methyl)piperazin-1-yl)methyl)-4-(2-methoxyphenyl)-1,2,5-oxadiazole 2-oxide]
